Assay results as given in publication PMC6211230, “Assessment of the antiproliferative and apoptotic roles of sulfonamide carbonic anhydrase IX inhibitors in HeLa cancer cell line” (Journal of Enzyme Inhibition and Medicinal Chemistry, 2018).

Assays:
Type in all cases: cell-based, human
[1] = system: MDA-MB-231; assay: WST-1 cytotoxicity, MDA-MB-231
Procedure: Cancer and normal cell lines were purchased from ATCC and stored in liquid nitrogen. HT-29 (colon adenoma cancer), HeLa (cervix adenoma cancer cell), MDA-MB-231 (breast adenoma cancer cell) and HEK-293 (embryonic kidney epithelial cell), PNT-1A (normal prostate cells) cell lines were incubated in DMEM: F-12 and RPMI-1640, including 10% Foetal Bovine Serum (FBS), 100 μg/mL streptomycin/100 IU/mL penicillin, at 37 °C in an incubator containing 5% CO2, 95% air in a humid atmosphere.
The cytotoxic effects of the substances were evaluated with WST-1 kits (Roche, Germany) in accordance with the manufacturer’s protocols. The cells were plated on 96-well plates (10^4 cells in each well). After incubation for 24 h, the media were discarded and the substances and Cisplatin as the control drug, at doses of 0, 2.5, 5, 10, 25, 50, 100, and 200 μM, were incubated for 24, 48, and 72 h. WST-1 reactive of 10 µl was added to all wells. Following 4 h incubation, the measurements were taken on a plate reader (Spectramax M5) at wavelengths of 450 and 630 nm. Graphs were then created and the IC50 value of each substance was calculated.

[2] = system: HeLa cells; assay: Cell cycle assay by flow cytometry; conditions: 50 μM, 24 h
Procedure: Cell cycle analysis was performed using BD Cycletest™ Plus DNA Reagent kit (BD Biosciences, New Jersey, USA). According to the kit protocol, 1 × 10^6 cells were plated on 6-well plates, and following 24 h, the cells were incubated for 24 h, with sulfonamide derivative compounds at concentrations of 10–25–50 μM. The cells were raised with trypsin handling and centrifuged at 1500 rpm for 5 min. A suspension was formed with 1X binding buffer, and respectively, 250 µl solution A was added and incubated in a light-free environment for 10 min; 200 µl solution B was added and incubated in a light-free environment for 10 min; and 200 µl solution C was added and incubated in at +4 °C in a protected-light environment for 10 min. All analyses were performed by flow cytometry (BD Via, New Jersey, USA).

[3] = system: HeLa cells; assay: Extracellular pH (blood gas device); conditions: HeLa media, dose-dependent, initial pHe 6.4
Procedure: Intracellular pH was measured according to the protocol of the fluorometric Intracellular pH Assay Kit (Sigma, Schnelldorf, Germany, MAK-150). Fluorescent BCFL-AM indicator that was able to pass through the cell membrane was used to measure intracellular pH fluctuations in the fluorometric intracellular pH kit. BCFL-AM was utilised to measure the reductions in intracellular pH of the cells that had been treated by various conditions. The cells were plated on black plates, as 6 × 10^4 in each well of the plate, and incubated for 24 h. The medium was replaced with BCFL-AM Reagent which had been prepared in 100 µl of HBS solution (Hank’s buffer with 20 mM HEPES, 5 mM Probenecid), then the cells were incubated at 37 °C in an atmosphere of 5% CO2 for 30 min (protected from light). Sulfonamide compound at doses of 0–25 μM was added to the HBS solution. In the next 5 min, the measurement was performed at wavelengths of 490 nm (excitation) 535 nm (emission) in spectrofluorimetry (Spectramax, M5). Extracellular pHe and lactate levels were measured with commercial kit by the blood gas device (ABL90 FLEX PLUS, Radiometer, Copenhagen, Denmark) which is routinely used in the clinical biochemistry laboratory of hospital. After the application of the substance in this method, the media were analysed directly by the device.

## NS(=O)(=O)c1ccc(CCN=Cc2cc(Cl)ccc2O)cc1 [Compound A-1]
[1]; MDA-MB-231, 24 h
  IC50: 293 µM
[1]; MDA-MB-231, 48 h
  IC50: 65.9 µM
[1]; MDA-MB-231, 72 h
  IC50: 37.3 µM
[2]
  cells in G0/G1: 65.7%
  cells in G2/M: 13.8%
  cells in S: 19.4%
[3]
  extracellular pH (pHe) reached: 7.3
